Patent US20240150346A1, “CLASS OF HETEROAROMATIC COMPOUND, PREPARATION METHOD THEREFOR AND USE THEREOF” (INNOVSTONE THERAPEUTICS LIMITED, priority 2021, published 2024)

Biological target: T1, human-derived receptor TLR7 (Homo sapiens, UniProt Q9NYK1)
T1 construct: host or cells: HEK-Blue hTLR7 cells (HEK293-derived reporter line)
T1 sequence (Q9NYK1 27-1049): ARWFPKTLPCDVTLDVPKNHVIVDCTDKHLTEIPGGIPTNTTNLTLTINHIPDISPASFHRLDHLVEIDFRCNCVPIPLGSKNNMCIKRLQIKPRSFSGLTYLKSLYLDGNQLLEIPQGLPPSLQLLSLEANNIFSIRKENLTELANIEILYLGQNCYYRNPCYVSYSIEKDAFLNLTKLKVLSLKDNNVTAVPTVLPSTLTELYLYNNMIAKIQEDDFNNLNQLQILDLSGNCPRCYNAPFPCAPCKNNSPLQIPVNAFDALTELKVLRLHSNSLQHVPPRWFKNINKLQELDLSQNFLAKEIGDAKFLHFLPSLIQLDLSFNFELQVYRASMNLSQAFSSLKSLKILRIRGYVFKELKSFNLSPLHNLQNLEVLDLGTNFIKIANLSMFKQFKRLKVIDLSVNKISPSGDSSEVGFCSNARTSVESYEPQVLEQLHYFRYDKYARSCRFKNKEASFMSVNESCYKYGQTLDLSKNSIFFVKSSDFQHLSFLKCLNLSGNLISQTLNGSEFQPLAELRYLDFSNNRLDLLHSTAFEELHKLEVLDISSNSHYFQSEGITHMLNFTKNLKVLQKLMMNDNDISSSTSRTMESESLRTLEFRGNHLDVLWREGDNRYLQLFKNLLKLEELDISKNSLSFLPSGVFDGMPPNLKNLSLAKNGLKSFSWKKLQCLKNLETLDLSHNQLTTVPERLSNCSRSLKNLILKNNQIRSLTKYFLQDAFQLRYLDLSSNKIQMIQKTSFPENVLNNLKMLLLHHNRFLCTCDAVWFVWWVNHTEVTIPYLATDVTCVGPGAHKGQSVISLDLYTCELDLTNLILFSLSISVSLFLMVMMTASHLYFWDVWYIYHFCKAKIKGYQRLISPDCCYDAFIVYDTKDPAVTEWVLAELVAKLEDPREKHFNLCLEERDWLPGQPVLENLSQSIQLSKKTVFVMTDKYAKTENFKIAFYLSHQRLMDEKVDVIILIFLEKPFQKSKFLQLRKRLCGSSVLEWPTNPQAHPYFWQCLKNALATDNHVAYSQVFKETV
Test: Assay on agonistic activity for human-derived receptor TLR7 (HEK-Blue hTLR7 cells, HEK-Blue Detection Medium)
Type: cell-based
Conditions: 16 h incubation, absorbance at 655 nm, read-out: EC50
Description: HEK-Blue™ hTLR7 cells (InvivoGen, hkb-htlr7) were cultured in a DMEM complete medium (Gibco, 12100) containing 10% FBS (Invitrogen, 10099141), 1% P/S (Invitrogen, 15140122), 10 μg/mL Blasticidin (InvivoGen, ant-bl-1), 100 μg/mL Zeocin (InvivoGen, ant-zn-1), and 100 μg/mL Normocin (InvivoGen, ant-nr-1). The cells were cultured in an incubator at 37° C. with 5% CO2. When HEK-Blue™ hTLR7 cells reached a growth density of 70%-80%, cell passage was needed.
The agonistic activity for the human-derived receptor TLR7 by HEK-Blue™ hTLR7 cells was assayed by HEK-Blue™ Detection Medium (InvivoGen, hd-det2). First, a bag of HEK-Blue™ Detection Medium powder was dissolved in 50 mL of ultra-pure sterile water for complete dissolution, and then the dissolved medium was filtered into a new 50 mL centrifuge tube through a 0.22 μm filter. Finally, antibiotics were added into the filtered detection medium until the final concentration was 1% for P/S and 100 μg/mL for Normocin. HEK-Blue™ Detection Medium was pre-heated to 37° C. in advance on the day of the assay on the activity for the TLR7 receptor, and the temperature was always maintained at 37° C.
The compound powder was dissolved in 100% DMSO (Sigma, D2650-100ML) to obtain a 10 mM stock solution, and the compound was completely dissolved by shaking with an oscillator. The stock solution of the compound was subjected to a 5-fold dilution to 2 mM with 100% DMSO. This was followed by a 3-fold serial dilution for a total of 8 concentration gradients. Then, each of the concentration gradients was subjected to a 20-fold dilution to 100 μM, 33.3 μM, 11.1 μM, 3.7 μM, 1.23 μM, […], 0.114 μM, and 0.05 μM using HEK-Blue™ Detection Medium. 20 μL of each of the dilutions was added to a 96-well cell culture plate (Corning, 3599).
On the day of the assay on the agonistic activity for the human-detived receptor TLR7, HEK-Blue™ hTLR7 cells has a growth density of 70%-80%, and the cell medium was removed. 1 mL of cell dissociation buffer (Gibco, 13151-014) was added to each 100 mm cell culture dish, and the cells were incubated in an incubator at 37° C. for 5 min. The cells were pipetted using a DMEM cell medium to obtain a single cell suspension, which was then centrifuged at 1000 rpm for 10 min to collect the cell pellet. The cell pellet was resuspended with HEK-Blue™ Detection Medium pre heated to 37° C. The cells were counted and diluted to 220,000 cells/mL. Finally, 180 μL of cell suspension (40,000 cells/well) was added to each well of the 96-well cell culture plate to which the compound had been added, and the cell suspension was mixed with the compound using a pipettor. Final concentrations of the compound were 10 μM, 3.3 μM, 1.1 μM, 0.37 μM, 0.12 μM, 0.04 μM, 0.01 μM, and 0.005 μM. After incubation in an incubator at 37° C. for 16 h, the absorbance was read at 655 nm using an M5e microplate reader (MD, USA).
The EC50 of the compound was calculated using the software GraphPad Prism (GraphPad Software, USA). The background reading of the detection culture was subtracted from the absorbance readings at 655 nm of all wells of the 96-well plate, the ratio of each well to the negative control well (the well without the compound) was calculated, and then the percentage of the ratio of each well to the positive control well (the well treated with 10 μM positive compound), i.e., the percentage of activity, was calculated. Finally, the sigmoidal dose-response (variable slope) curve between the percentage of activity and the concentration of the compound was calculated using the software GraphPad Prism to calculate the EC50 of the compound. […]

| Compound | EC50 |
| --- | --- |
| CCCCOc1nc(N)c2[nH]c(=O)n(Cc3ccc(CN4CCC(O)C4)s3)c2n1 (stereo not drawn) [Example 44, 6-amino-2-butoxy-9-((5-((3-hydroxypyrrolidin-1-yl)methyl)thien-2-yl)methyl)-7,9-dihydro-8H-purin-8-one] | < 50 nM |
| CSc1nc2c(N)nc3ccccc3c2n1Cc1ccc(OCCN(C)C)nc1 [Example 223] | 50 to 100 nM |
| CCCCOc1nc(N)c2c(n1)CN(Cc1ccc(Cn3ccnc3)c(C)c1)C(=O)N2 [Example 76] | 50 to 100 nM |
| CCCCOc1nc(N)c2[nH]c(=O)n(Cc3ccc(CN4CCCC4)s3)c2n1 [Example 43, 6-amino-2-butoxy-9-((5-(pyrrolidin-1-ylmethyl)thien-2-yl)methyl)-7,9-dihydro-8H-purin-8-one] | < 50 nM |

Further lines, results first:

| EC50 | Compound |
| --- | --- |
| 50 to 100 nM | CSc1nc2c(N)nc3ccccc3c2n1Cc1ccc(-c2cnn(CCNC3CCC3)c2)cc1 [Example 196] |
| 50 to 100 nM | CCCCSc1nc2c(N)nc3ccccc3c2n1Cc1ccc(CN2CCCC2)cc1 [Example 161] |
| < 50 nM | Nc1nc2ccccc2c2c1nc(SCCC(F)(F)F)n2Cc1ccc(CN2CCCC2)cc1 [Example 181] |
| < 50 nM | Nc1nc2ccccc2c2c1nc(SCC(F)F)n2Cc1ccc(CN2CCCC2)cc1 [Example 179] |
| 50 to 100 nM | CSc1nc2c(N)nc3ccccc3c2n1Cc1ccc(CN2CCNCC2)s1 [Example 220] |
